This is an account of results in US9126999B2, “Tetrahydropyrazolopyrimidine compounds” (EISAI R&D MANAGEMENT CO., LTD., priority 2012, dated 2015).

A word on the IC50: it is the midpoint of a concentration-inhibition curve.

The subject of test [1] is T1, Human TLR7/8.
T1 construct: IC50; other: Hu PBMC; ligand RNA-Ig; analyte IL-6; analyte TNFα; ligand R848; IC50 against the RNA-Ig TLR7/8 stimulus; cytokine responses to RNA-Ig complexes in vitro; potency against the RNA-Ig TLR7/8 stimulus versus HCQ
As to the kind of experiment: Human PBMC cell-based assay, RNA-Ig (SL4-Ig) stimulus, cytokine ELISA. The following applies: Human PBMC IL-6 Inhibition (SL4-Ig Ligand); read-out: Human PBMC IC50. As to the method:
Briefly, 25 ml blood was diluted with 15 ml PBS (without Ca^2+, Mg^2+) in a 50 ml conical tube, and 12 ml Histopaque was underlaid using a spinal needle. Tubes were centrifuged for 45 minutes at 1200 rpm (350×g), and PBMC were collected from the buffy coat. Cells were then washed twice in PBS, and red blood cells were lysed by suspension in 5 ml ammonium chloride solution (1× Red Blood Cell Lysis Buffer, eBioscience) for 5 minutes at room temperature.
Antagonist compounds solubilized and serial diluted in 100% DMSO were added in triplicate to cells to yield a final concentration of 0.1% DMSO (v/v). Hydroxychloroquine (Acros Organics) solubilized and serial diluted in PBS was added in triplicate to cells. […] The resulting “RNA-Ig” stimulus was incubated at room temperature for 15-30 minutes before adding to cells. PBMC were incubated with the various TLR agonists for 20 hours at 37° C., 5% CO2. Cell culture supernatants were collected, and levels of various human cytokines were assessed as indicated by standard ELISA procedure according to the manufacturer's recommended protocol (BD Biosciences, Inc., San Diego, Calif.).
In general terms: ELISA stands for enzyme-linked immunosorbent assay.

The target in test [2] is T2, Mouse TLR7 (Mus musculus, UniProt P58681).
T2 construct: endogenous in cells; host or cells: female BALB/c mice, in vivo
T2 sequence (P58681 27-1050): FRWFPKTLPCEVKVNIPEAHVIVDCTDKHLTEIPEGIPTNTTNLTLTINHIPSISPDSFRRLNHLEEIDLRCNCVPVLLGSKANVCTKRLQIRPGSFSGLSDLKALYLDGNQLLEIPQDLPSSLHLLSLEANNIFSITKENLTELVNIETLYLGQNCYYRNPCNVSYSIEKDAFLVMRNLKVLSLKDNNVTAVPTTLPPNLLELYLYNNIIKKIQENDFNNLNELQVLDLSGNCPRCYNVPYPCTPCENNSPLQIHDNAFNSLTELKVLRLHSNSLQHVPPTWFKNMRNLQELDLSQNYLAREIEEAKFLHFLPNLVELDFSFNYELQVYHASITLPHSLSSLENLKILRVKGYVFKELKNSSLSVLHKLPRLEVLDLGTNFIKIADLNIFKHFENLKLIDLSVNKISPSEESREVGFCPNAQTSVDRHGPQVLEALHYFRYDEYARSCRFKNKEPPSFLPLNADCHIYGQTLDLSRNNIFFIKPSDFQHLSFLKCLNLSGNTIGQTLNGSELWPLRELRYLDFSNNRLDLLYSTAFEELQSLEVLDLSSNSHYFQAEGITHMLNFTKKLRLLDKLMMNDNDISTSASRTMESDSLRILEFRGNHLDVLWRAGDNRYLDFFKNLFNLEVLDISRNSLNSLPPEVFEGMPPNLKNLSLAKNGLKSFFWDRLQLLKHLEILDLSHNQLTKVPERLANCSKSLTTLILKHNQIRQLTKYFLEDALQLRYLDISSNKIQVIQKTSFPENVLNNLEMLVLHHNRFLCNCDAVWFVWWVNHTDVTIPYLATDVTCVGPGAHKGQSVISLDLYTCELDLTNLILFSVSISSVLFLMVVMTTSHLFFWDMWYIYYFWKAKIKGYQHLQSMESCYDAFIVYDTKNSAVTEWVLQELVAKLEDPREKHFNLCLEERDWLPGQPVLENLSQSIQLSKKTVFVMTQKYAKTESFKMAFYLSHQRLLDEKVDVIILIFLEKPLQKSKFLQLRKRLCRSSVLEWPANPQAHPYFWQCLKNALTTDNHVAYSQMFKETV
Put plainly: Mouse spleen cell-based assay, R848 stimulus, IL-6 ELISA. The settings on record: Mouse Splenocyte IL-6 Inhibition (R848 Ligand); read-out: Mouse Splenocyte IC50. As to the method:
Spleens were harvested from female BALB/c mice (Jackson Labs, Bar Harbor, Me.) euthanized by CO2. A single cell suspension was obtained by passing spleens through a 40 μm nylon cell strainer. Cells were washed twice with 50 ml PBS (Mediatech, Inc., Manassas, Va.) and red blood cells were lysed in 5 ml RBC Lysis buffer (eBioscience, Inc., San Diego, Calif.) for 5 minutes at room temperature. Cells were washed twice more in PBS and finally resuspended in supplemented RPMI-1640 at 2.5×10^6 cells/ml. Cells were plated at 100 μl/well (2.5×10^5 cells/well) in 96-well tissue culture treated plates (Falcon). Serial dilutions of compounds solubilized in 100% DMSO were added in triplicate to cells to yield a final concentration of 0.1% DMSO. Cells were incubated with compound for 30 minutes at 37° C., 5% CO2 before adding 100 μl/well of 740 nM R848 (Resiquimod; GLSynthesis, Worcester, Mass.) in complete media for a final concentration of 370 nM R848. Cells were incubated for 20 hours at 37° C., 5% CO2. Culture supernatants were collected, and levels of IL-6 were assessed by standard ELISA procedure according to the manufacturer's recommended protocol (BD Biosciences, Inc., San Diego, Calif.).

The target of test [3] is T2, Mouse TLR7. As to the kind of experiment: Short-term in vivo (STIV) assay: plasma IL-6 after s.c. R848. As to the method: Figure Legend: Female BALB/c mice were dosed by oral gavage with Vehicle alone (0.5% aqueous methyl-cellulose) or compound ER-892887 formulated in Vehicle at 100 mg/kg or 300 mg/kg. At 13 or 24 hours following oral dosing, mice were injected subcutaneously with 15 ug R848 to stimulate TLR7. Blood plasma was collected by cardiac puncture, and the IL-6 level at 1.5 hours after TLR7 stimulation was then assessed by standard ELISA procedure. Percent suppression indicated is relative to IL-6 induction following Vehicle control dosing. Statistical significance was determined by Mann-Whitney test.
To assess compound potency in vivo against mouse TLR7, a short-term in vivo (STIV) assay was utilized. Briefly, mice were orally dosed with compounds and at various time points afterwards were injected subcutaneously with agonist R848 to stimulate TLR7. The plasma IL-6 level following R848 stimulation was then measured by ELISA to assess compound potency and duration-of-action. […] Therefore, the activity of compounds in the STIV assay can be confidently attributed to their modulation of the TLR7 pathway. A single oral dose of ER-892887 at 300 mg/kg suppresses the R848/TLR7/IL-6 pathway in vivo by 80-90% for at least 24 hours (see FIG. 1).
Six to eight week old female BALB/c mice (Jackson Labs, Bar Harbor, Me.) were dosed by oral gavage in 200 ul volume with antagonist compounds formulated in 0.5% aqueous methyl-cellulose (Sigma, St. Louis, Mo.). At various time points afterwards, mice were injected subcutaneously (s.c.) in 100 ul volume with 15 ug R848 (Resiquimod; GLSynthesis, Worcester, Mass.) to stimulate TLR7. Blood plasma was collected by cardiac puncture, and levels of IL-6 at 1.5 hours after TLR7 stimulation were then assessed by standard ELISA procedure according to the manufacturer's recommended protocol (R&D Systems).

Setting [4] is: time point 6 hr, dose 33 mg/kg oral.
Setting [5] is: time point 6 hr, dose 100 mg/kg oral.
[6] abbreviates: time point 6 hr, dose 300 mg/kg oral.
The mark [7] stands for this setting: time point 13 hr, dose 33 mg/kg oral.
[8] abbreviates: time point 13 hr, dose 100 mg/kg oral.
[9] abbreviates: time point 13 hr, dose 300 mg/kg oral.
The mark [10] stands for this setting: time point 24 hr, dose 100 mg/kg oral.
The mark [11] stands for this setting: time point 24 hr, dose 300 mg/kg oral.

For “5-(3,4-dimethoxyphenyl)-2-(6-methyl-1,2,3,6-tetrahydropyridin-4-yl)-7-(trifluoromethyl)-4,5,6,7-tetrahydropyrazolo[1,5-a]pyrimidine hydrochloride and 5-(3,4-dimethoxyphenyl)-2-(2-methyl-1,2,3,6-tetrahydropyridin-4-yl)-7-(trifluoromethyl)-4,5,6,7-tetrahydropyrazolo[1,5-a]pyrimidine hydrochloride [ER-896993]”, the IC50 in test [1] was found to be 0.038 µM.
As for `COc1ccc(C2CC(C(F)F)n3nc(-c4ccc(C(=O)N5CCNCC5)cc4)cc3N2)cc1OC` (racemic) [ER-894466], the IC50 in test [1] was 0.043 µM; in test [2] it was 0.42 µM.
Consider `COc1ccc([C@@H]2C[C@H](C(F)(F)F)n3nc(C4CCNCC4)cc3N2)cc1OC` [ER-885681], for which, in test [1], the IC50 stood at 0.173 µM. Moreover, the “% Suppression vs. Vehicle” value in test [3] (time point 3 hr, dose 33 mg/kg oral) stood at 90%; in test [3] (time point 3 hr, dose 100 mg/kg oral) it was 98%; in test [3] (time point 3 hr, dose 300 mg/kg oral), 99%; in test [3] (setting [4]), 42%; in test [3] (setting [5]), 81%; in test [3] (setting [6]) it was 96%. Also, the figures for the “% Suppression vs. Vehicle” value in test [3] (setting [7]), in test [3] (setting [8]) and in test [3] (setting [9]) were 0%, 7% and 50%, respectively.
Take `COc1ccc([C@H]2C[C@@H](C(F)(F)F)n3nc(C4CCNCC4)cc3N2)cc1OC` [ER-885682]: in test [1], the IC50 stood at 0.357 µM.
Regarding `COc1ccc(C2CC(C(F)(F)F)n3nc(C4CCNCC4)cc3N2)cc1OC` (centres unmarked) [ER-887084], the concentration for half-maximal inhibition (IC50) in test [1] was 0.101 µM.
As to `Cc1nn(C)cc1[C@@H]1C[C@H](C(F)(F)F)n2nc(-c3ccc4nn(C)cc4c3)cc2N1` [ER-893990], the IC50 in test [1] amounted to 4.46 µM; in test [2], 3.92 µM.
Regarding `COc1ccc([C@@H]2C[C@H](C(F)F)n3nc(-c4ccc(C(=O)N5CCNCC5)cc4)cc3N2)cc1OC` [ER-895302], the IC50 in test [1] came to 0.025 µM; in test [2] it was 0.12 µM. Further, the “% Suppression vs. Vehicle” value in test [3] (setting [4]) worked out at 93%; in test [3] (setting [5]), 99%; in test [3] (setting [6]) it was 99%; in test [3] (setting [7]), 14%; in test [3] (setting [8]) it was 16%; in test [3] (setting [9]), 91%. In addition, the “% Suppression vs. Vehicle” value in test [3] (time point 24 hr, dose 33 mg/kg oral) was determined as 30%; in test [3] (setting [10]), 0%; in test [3] (setting [11]) it was 37%.
With `COc1ccc([C@H]2C[C@@H](C(F)F)n3nc(-c4ccc(C(=O)N5CCNCC5)cc4)cc3N2)cc1OC` [ER-895303], the results for the IC50 in test [1] and in test [2] were 0.023 µM and 0.27 µM, respectively. Also, the “% Suppression vs. Vehicle” value in test [3] (setting [4]) is on record as 92%; in test [3] (setting [7]), 0%; in test [3] (setting [8]) it was 18%; in test [3] (setting [9]), 90%; in test [3] (setting [10]), 0%; in test [3] (setting [11]), 60%.
In the case of `COc1ccc(C2CC(C(F)(F)F)n3nc(-c4ccc(C(=O)NC5CCNC5)nc4)cc3N2)cc1OC` (centres unmarked) [ER-895809], in test [1], the IC50 was 0.021 µM.
Consider `COc1ccc(C2CC(C(F)(F)F)n3nc(-c4ccc(C(=O)NC5CCNC5)nc4)cc3N2)cc1OC` (centres unmarked) [ER-895810], for which the IC50 in test [1] was determined as 0.027 µM.
Same read-out and setting: the figure for `COc1ccc(C2CC(C(F)(F)F)n3nc(-c4cccc(C(=O)NC5CCNC5)c4)cc3N2)cc1OC` (centres unmarked) [ER-895811] is 0.111 µM.
The same measure, in the same setting: the figure for `COc1ccc(C2CC(C(F)(F)F)n3nc(-c4ccc(C(=O)N5CCNCC5)nc4)cc3N2)cc1OC` (centres unmarked) [ER-896133] is 0.064 µM; for `COc1ccc(C2CC(C(F)(F)F)n3nc(-c4ccc(C(=O)NC5CCNCC5)nc4)cc3N2)cc1OC` (centres unmarked) [ER-896134] it is 0.012 µM; for `COc1ccc(C2CC(C(F)(F)F)n3nc(-c4ccc(C(=O)NC5CCCNC5)nc4)cc3N2)cc1OC` (centres unmarked) [ER-896135] it is 0.018 µM.
As to `COc1ccc(C2CC(C(F)(F)F)n3nc(-c4cccc(C(=O)N5CCNCC5)c4)cc3N2)cc1OC` (centres unmarked) [ER-896388], in test [1], the IC50 was 0.122 µM.
Same read-out and setting: the figure for `COc1ccc(C2CC(C(F)(F)F)n3nc(C(=O)N4CCNCC4)cc3N2)cc1OC` (centres unmarked) [ER-896452] is 0.049 µM.
